target: T1, human DGAT2 (hDGAT2) (Homo sapiens, UniProt Q96PD7); experiment: DGAT2 Enzymatic Activity Assay; format: biochemical; conditions: membrane prep of Sf-9 cells expressing hDGAT2; 25 μM diolein, 5 μM 13C oleoyl-CoA; 13C18-triolein by LC/MS/MS; read-out: DGAT2 IC50
T1 construct: made in house; host or cells: Sf-9 insect cells (baculovirus), membrane fraction
T1 sequence (Q96PD7 1-388): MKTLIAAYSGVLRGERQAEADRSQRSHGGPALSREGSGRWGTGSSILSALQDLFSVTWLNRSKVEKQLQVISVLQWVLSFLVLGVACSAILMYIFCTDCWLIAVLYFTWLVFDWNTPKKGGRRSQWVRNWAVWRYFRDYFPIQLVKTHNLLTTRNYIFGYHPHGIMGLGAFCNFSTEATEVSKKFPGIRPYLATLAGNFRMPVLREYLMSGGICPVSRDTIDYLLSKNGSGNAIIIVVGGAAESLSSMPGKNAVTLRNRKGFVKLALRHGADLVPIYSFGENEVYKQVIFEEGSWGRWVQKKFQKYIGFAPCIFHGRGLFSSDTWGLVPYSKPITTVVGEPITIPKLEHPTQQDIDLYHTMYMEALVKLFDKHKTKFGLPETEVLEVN
How it was run: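 Membranes from Sf-9 cells expressing untagged human DGAT2 (8 ng/μL) incubated at rt in 100 mM Tris·Cl pH 7.0, 20 mM MgCl2, 5% ethanol with 25 μM diolein and 5 μM 13C oleoyl-CoA. 13C18-triolein product quantified by LC/MS/MS against 13C21-triolein internal standard; IC50 by 4-parameter fit.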

Point of comparison: `CC(C)n1c(=O)n(-c2cccc(OC(F)F)c2)c2ncc(C(=O)N[C@@]3(C)CCS(=O)(=O)C3)cc21` [Example 89, 3-[3-(difluoromethoxy)phenyl]-1-isopropyl-N-[(3S)-3-methyl-1,1-dioxo-thiolan-3-yl]-2-oxo-imidazo[4,5-b]pyridine-6-carboxamide], IC50 288 nM. Against it:
- CC(C)n1c(=O)n(-c2cccc(OC(F)F)c2)c2ncc(C(=O)N[C@]3(C)CCS(=O)(=O)C3)cc21 [Example 90, 3-[3-(difluoromethoxy)phenyl]-1-isopropyl-N-[(3R)-3-methyl-1,1-dioxo-thiolan-3-yl]-2-oxo-imidazo[4,5-b]pyridine-6-carboxamide] — within 1.5-fold, 193 nM
- CC(C)n1c(=O)n(-c2cccc(OC(F)(F)F)c2)c2ncc(C(=O)NC3(C)CS(=O)(=O)C3)cc21 [Example 91, 1-isopropyl-N-(3-methyl-1,1-dioxo-thietan-3-yl)-2-oxo-3-[3-(trifluoromethoxy)phenyl]imidazo[4,5-b]pyridine-6-carboxamide] — within 1.5-fold, 355 nM
- CC(C)n1c(=O)n(-c2cccc(OC(F)(F)F)c2)c2ncc(C(=O)NC3(C)CCS(=O)(=O)CC3)cc21 [Example 92, 1-isopropyl-N-(4-methyl-1,1-dioxo-thian-4-yl)-2-oxo-3-[3-(trifluoromethoxy)phenyl]imidazo[4,5-b]pyridine-6-carboxamide] — within 1.5-fold, 236 nM
- CC(C)n1c(=O)n(-c2cccc(OC(F)(F)C(F)F)c2)c2ncc(C(=O)NC3(C)CS(=O)(=O)C3)cc21 [Example 93, 1-isopropyl-N-(3-methyl-1,1-dioxo-thietan-3-yl)-2-oxo-3-[3-(1,1,2,2-tetrafluoroethoxy)phenyl]imidazo[4,5-b]pyridine-6-carboxamide] — 12-fold lower, 24 nM
- CC(C)n1c(=O)n(-c2cccc(OC(F)(F)C(F)F)c2)c2ncc(C(=O)N[C@@]3(C)CCS(=O)(=O)C3)cc21 [Example 94, 1-isopropyl-N-[(3S)-3-methyl-1,1-dioxo-thiolan-3-yl]-2-oxo-3-[3-(1,1,2,2-tetrafluoroethoxy)phenyl]imidazo[4,5-b]pyridine-6-carboxamide] — 2.7-fold lower, 108 nM
- CC(C)n1c(=O)n(-c2cccc(OC(F)(F)C(F)F)c2)c2ncc(C(=O)N[C@]3(C)CCS(=O)(=O)C3)cc21 [Example 95, 1-isopropyl-N-[(3R)-3-methyl-1,1-dioxo-thiolan-3-yl]-2-oxo-3-[3-(1,1,2,2-tetrafluoroethoxy)phenyl]imidazo[4,5-b]pyridine-6-carboxamide] — 13-fold lower, 23 nM
- CCOc1cccc(-n2c(=O)n(C(C)C)c3cc(C(=O)NC4(C)CS(=O)(=O)C4)cnc32)c1 [Example 96, 3-(3-ethoxyphenyl)-1-isopropyl-N-(3-methyl-1,1-dioxo-thietan-3-yl)-2-oxo-imidazo[4,5-b]pyridine-6-carboxamide] — 3.1-fold lower, 93 nM
- CCOc1cccc(-n2c(=O)n(C(C)C)c3cc(C(=O)N[C@@]4(C)CCS(=O)(=O)C4)cnc32)c1 [Example 97, 3-(3-ethoxyphenyl)-1-isopropyl-N-[(3S)-3-methyl-1,1-dioxo-thiolan-3-yl]-2-oxo-imidazo[4,5-b]pyridine-6-carboxamide] — 1.9-fold lower, 154 nM
- CCOc1cccc(-n2c(=O)n(C(C)C)c3cc(C(=O)N[C@]4(C)CCS(=O)(=O)C4)cnc32)c1 [Example 98, 3-(3-ethoxyphenyl)-1-isopropyl-N-[(3R)-3-methyl-1,1-dioxo-thiolan-3-yl]-2-oxo-imidazo[4,5-b]pyridine-6-carboxamide] — 2.8-fold lower, 102 nM
- CCOc1cccc(-n2c(=O)n(C(C)C)c3cc(C(=O)NC4(C)CCS(=O)(=O)CC4)cnc32)c1 [Example 99, 3-(3-ethoxyphenyl)-1-isopropyl-N-(4-methyl-1,1-dioxo-thian-4-yl)-2-oxo-imidazo[4,5-b]pyridine-6-carboxamide] — 5.5-fold lower, 52 nM
- CC(C)Oc1cccc(-n2c(=O)n(C(C)C)c3cc(C(=O)NC4(C)CS(=O)(=O)C4)cnc32)c1 [Example 100, 3-(3-isopropoxyphenyl)-1-isopropyl-N-(3-methyl-1,1-dioxo-thietan-3-yl)-2-oxo-imidazo[4,5-b]pyridine-6-carboxamide] — 2.4-fold higher, 692 nM
- CC(C)Oc1cccc(-n2c(=O)n(C(C)C)c3cc(C(=O)NC4(C)CCS(=O)(=O)CC4)cnc32)c1 [Example 101, 3-(3-isopropoxyphenyl)-1-isopropyl-N-(4-methyl-1,1-dioxo-thian-4-yl)-2-oxo-imidazo[4,5-b]pyridine-6-carboxamide] — 1.8-fold higher, 506 nM
- CC(C)n1c(=O)n(-c2cc(OC(F)F)ccc2F)c2ncc(C(=O)NC3(C)CS(=O)(=O)C3)cc21 [Example 102, 3-[5-(difluoromethoxy)-2-fluoro-phenyl]-1-isopropyl-N-(3-methyl-1,1-dioxo-thietan-3-yl)-2-oxo-imidazo[4,5-b]pyridine-6-carboxamide] — 1.9-fold lower, 148 nM
- CC(C)n1c(=O)n(-c2cccc(OC(F)F)c2)c2ncc(C(=O)NC3(C)CS(=O)(=O)C3)cc21 [Example 104, 3-[3-(difluoromethoxy)phenyl]-1-isopropyl-N-(3-methyl-1,1-dioxo-thietan-3-yl)-2-oxo-imidazo[4,5-b]pyridine-6-carboxamide] — 3.1-fold lower, 94 nM
- CC(C)n1c(=O)n(-c2cccc(OC(F)F)c2)c2c(F)cc(C(=O)N[C@@]3(C)CCS(=O)(=O)C3)cc21 [Example 109, 1-[3-(difluoromethoxy)phenyl]-7-fluoro-3-isopropyl-N-[(3S)-3-methyl-1,1-dioxo-thiolan-3-yl]-2-oxo-benzimidazole-5-carboxamide] — 32-fold lower, 9 nM
- CC(C)n1c(=O)n(-c2cccc(OC(F)F)c2)c2c(F)cc(C(=O)N[C@]3(C)CCS(=O)(=O)C3)cc21 [Example 110, 1-[3-(difluoromethoxy)phenyl]-7-fluoro-3-isopropyl-N-[(3R)-3-methyl-1,1-dioxo-thiolan-3-yl]-2-oxo-benzimidazole-5-carboxamide] — 41-fold lower, 7 nM
- CC(C)n1c(=O)n(-c2cccc(OC(F)F)c2)c2c(F)cc(C(=O)NC3(C)CCS(=O)(=O)CC3)cc21 [Example 111, 1-[3-(difluoromethoxy)phenyl]-7-fluoro-3-isopropyl-N-(4-methyl-1,1-dioxo-thian-4-yl)-2-oxo-benzimidazole-5-carboxamide] — 4.2-fold lower, 68 nM

same assay, conditions: membrane prep of Sf-9 cells expressing hDGAT2; 25 μM diolein, 5 μM 13C oleoyl-CoA; 13C18-triolein by LC/MS/MS; read-out: Human DGAT2 IC50

Point of comparison: `CC(C)n1c(=O)n(-c2cncc(OC(F)F)c2)c2ccc(C(=O)NC3(C)CS(=O)(=O)C3)cc21` [Example 83, 1-(5-(Difluoromethoxy)pyridin-3-yl)-3-isopropyl-N-(3-methyl-1,1-dioxidothietan-3-yl)-2-oxo-2,3-dihydro-1H-benzo[d]imidazole-5-carboxamide], IC50 150 nM. Against it:
- CC(C)n1c(=O)n(-c2cc(OC(F)F)ccc2F)c2ccc(C(=O)N[C@]3(C)CCS(=O)(=O)C3)cc21 [Example 82, (R)-1-(5-(Difluoromethoxy)-2-fluorophenyl)-3-isopropyl-N-(3-methyl-1,1-dioxidotetrahydrothiophen-3-yl)-2-oxo-2,3-dihydro-1H-benzo[d]imidazole-5-carboxamide] — 26-fold lower, 5.7 nM
- CC(C)n1c(=O)n(-c2cncc(C3CC3)c2)c2ccc(C(=O)NC3(C)CS(=O)(=O)C3)cc21 [Example 84, 1-(5-Cyclopropylpyridin-3-yl)-3-isopropyl-N-(3-methyl-1,1-dioxidothietan-3-yl)-2-oxo-2,3-dihydro-1H-benzo[d]imidazole-5-carboxamide] — 2.1-fold lower, 71 nM
- CC(C)n1c(=O)n(-c2cccc(OC(F)(F)C(F)F)c2)c2ncc(C(=O)NC3(C)CCS(=O)(=O)CC3)cc21 [Example 87, 1-isopropyl-N-(4-methyl-1,1-dioxo-thian-4-yl)-2-oxo-3-[3-(1,1,2,2-tetrafluoroethoxy)phenyl]imidazo[4,5-b]pyridine-6-carboxamide] — 7.5-fold lower, 20 nM
- CC(C)n1c(=O)n(-c2cccc(OC(F)F)c2)c2cnc(C(=O)NC3(C)CS(=O)(=O)C3)cc21 [Example 105, 3-(3-(difluoromethoxy)phenyl)-1-isopropyl-N-(3-methyl-1,1-dioxidothietan-3-yl)-2-oxo-2,3-dihydro-1H-imidazo[4,5-c]pyridine-6-carboxamide] — 12-fold higher, 1800 nM
- CC(C)n1c(=O)n(-c2cccc(OC(F)F)c2)c2cnc(C(=O)NC3(C)CCS(=O)(=O)CC3)cc21 [Example 106, 3-(3-(difluoromethoxy)phenyl)-1-isopropyl-N-(4-methyl-1,1-dioxidotetrahydro-2H-thiopyran-4-yl)-2-oxo-2,3-dihydro-1H-imidazo[4,5-c]pyridine-6-carboxamide] — 2.1-fold lower, 69.8 nM
- CC(C)n1c(=O)n(-c2cccc(OC(F)F)c2)c2ccc(C(=O)NC3(C)CS(=O)(=O)C3)nc21 [Example 107, 1-(3-(difluoromethoxy)phenyl)-3-isopropyl-N-(3-methyl-1,1-dioxidothietan-3-yl)-2-oxo-2,3-dihydro-1H-imidazo[4,5-b]pyridine-5-carboxamide] — 7.2-fold higher, 1080 nM
- CC(C)n1c(=O)n(-c2cccc(OC(F)F)c2)c2c(F)cc(C(=O)NC3(C)CS(=O)(=O)C3)cc21 [Example 108, 1-[3-(difluoromethoxy)phenyl]-7-fluoro-3-isopropyl-N-(3-methyl-1,1-dioxo-thietan-3-yl)-2-oxo-benzimidazole-5-carboxamide] — 12-fold lower, 12 nM
